Reference: ChEMBL document CHEMBL4842334, “Tropolone-Bearing Sesquiterpenes from Juniperus chinensis: Structures, Photochemistry and Bioactivity” (2021)
The source made the active and inactive calls. The calls are words filed in the database; no cut-off is given here.

Experiments:
HepG2 [1] = assay: Inhibition of lipid accumulation in human HepG2 cells at 20 uM incubated for 24 hrs by Oil Red O staining analysis relative to oleic acid; type: functional
HepG2 [2] = assay: Increase in glycerol release in human HepG2 cells at 25 uM incubated for 24 hrs by microplate reader analysis; type: functional, cell-based
[3] = Reduction in melanin production in mouse Melan-a cells at 5 uM measured after 72 hrs by microplate reader; type: functional
Melan-a [4] = assay: Reduction in MITF protein expression in mouse Melan-a cells at 5 uM measured after 72 hrs by Western blot analysis; type: functional, cell-based
Melan-a [5] = assay: Reduction in tyrosinase protein expression in mouse Melan-a cells at 5 uM measured after 72 hrs by Western blot analysis; type: functional, cell-based
Melan-a [6] = assay: Reduction in TRP1 protein expression in mouse Melan-a cells at 5 uM measured after 72 hrs by Western blot analysis; type: functional, cell-based
[7] = target: T1, Tyrosinase (Agaricus bisporus) (UniProt O42713); assay: Inhibition of mushroom tyrosinase activity at 5 uM measured after 1 hr by microplate reader analysis
T1 sequence (whole entry): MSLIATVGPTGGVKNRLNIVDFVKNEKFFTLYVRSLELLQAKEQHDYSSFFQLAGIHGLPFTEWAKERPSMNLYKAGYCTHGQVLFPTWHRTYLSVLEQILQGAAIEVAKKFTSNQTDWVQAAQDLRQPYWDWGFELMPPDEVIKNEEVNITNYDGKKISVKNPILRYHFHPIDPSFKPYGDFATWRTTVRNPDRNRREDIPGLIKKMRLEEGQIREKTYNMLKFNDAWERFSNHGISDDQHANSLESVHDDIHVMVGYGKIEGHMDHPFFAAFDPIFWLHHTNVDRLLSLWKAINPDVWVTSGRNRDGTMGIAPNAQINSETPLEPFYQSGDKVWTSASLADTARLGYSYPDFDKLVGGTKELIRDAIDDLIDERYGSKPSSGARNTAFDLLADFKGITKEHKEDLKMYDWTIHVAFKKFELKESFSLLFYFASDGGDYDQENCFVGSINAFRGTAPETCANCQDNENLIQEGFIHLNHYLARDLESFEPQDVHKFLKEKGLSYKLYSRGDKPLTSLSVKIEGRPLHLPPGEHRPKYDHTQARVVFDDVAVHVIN

C/C(=C\CC1=C[C@H]2C(=O)C(O)=C[C@@]12C(C)C)CO
inhibition at 20 µM (HepG2 [1]): 29%

C/C(=C\C[C@@]12C=C[C@]1(O)C(=O)C=C2C(C)C)CO
inhibition at 20 µM (HepG2 [1]): 29% | Activity (HepG2 [2]): Active

C/C(=C\Cc1ccc(=O)c(O)cc1C(C)C)CO
inhibition at 5 µM [3]: 10% | Activity (Melan-a [4]): Active | Activity (Melan-a [5]): Active | Activity (Melan-a [6]): Active | inhibition at 20 µM (HepG2 [1]): 29% | Activity (HepG2 [2]): Active | inhibition [7]: Active

C/C(=C\C[C@]12C=C[C@@]1(O)C(=O)C=C2C(C)C)CO
inhibition at 20 µM (HepG2 [1]): 29% | Activity (HepG2 [2]): Active

C/C(=C\CC1=C[C@@H]2C(=O)C(O)=C[C@]12C(C)C)CO
inhibition at 20 µM (HepG2 [1]): 29%
